Turning to `Cc1cc(C(F)(C(F)(F)F)C(F)(F)F)ccc1N1C(=O)c2cccc(Cl)c2C1NC(C)(C)CS(C)(=O)=O` (stereo not shown) [Synthesis Example 2, 4-chloro-3-(2-methanesulfonyl-1,1-dimethylethylamino)-2-[2-methyl-4-(1,2,2,2-tetrafluoro-1-trifluoromethylethyl)phenyl]-2,3-dihydroisoindol-1-one], the melting point is 154 to 156 °C.

(Values after patent publication US20070031514A1, “Use of isoindolinone derivatives as insecticides” (priority 2003, published 2007).)
